In article PMC9479156 (Frontiers in Pharmacology, 2022):
Where two headings read alike, the source gives them in different places.

How the values were obtained:
[1] = system: asexual blood stage P. falciparum NF54 (drug sensitive); test: SYBR Green I proliferation assay, asexual blood stage Pf NF54; format: cell-based; details: Plasmodium falciparum, read-out: IC50 NF54
Procedure: In vitro cultivation of asexual and gametocyte P. falciparum parasites: P. falciparum asexual blood stage parasites were cultivated in human erythrocytes in RPMI-1640 media supplemented with AlbuMax II under sterile conditions and in a hypoxic environment (90% N2, 5% CO2, and 5% O2) at 37°C as described previously ([Coertzen et al., 2018]; [Wong et al., 2019]). Gametocytes were produced from asexual blood stage parasites in a stage-specific manner through induction of cellular stress as described previously ([Reader et al., 2015]; [Coertzen et al., 2018]; [Wong et al., 2019]; [Reader et al., 2022]).
DHA, artesunate, artemether, chloroquine (CQ), and methylene blue (MB) were used as reference drugs. All assay conditions are as previously described ([Coertzen et al., 2018]; [Wong et al., 2019]). […] Dose-responses were determined using a 2-fold serial drug dilution on in vitro 95% ring-stage intraerythrocytic Pf parasites (1% parasitemia, 1% hematocrit) at 37°C under 90% N2, 5% CO2, and 5% O2 atmospheric conditions, detecting SYBR green I fluorescence as a marker for parasite proliferation following a 96 h drug treatment ([Smilkstein et al., 2004]; [Verlinden et al., 2011]). Activity against the Pf drug-sensitive NF54 strain and the multi drug-resistant K1 (resistant to CQ, quinine, pyrimethamine, and cycloguanil), and W2 (resistant to CQ, quinine, pyrimethamine, and cycloguanil) strains was evaluated. […] Data analysis was performed using GraphPad Prism (version 6) software, intra-assay variability was monitored with Z-factors, and acceptable inter-assay reproducibility was determined from the percent coefficient of variation (CV) ([Reader et al., 2015]). […]
Activity was determined using the SYBR Green I based fluorescence assay on asexual blood stages of the NF54 (drug sensitive), K1 and W2 (drug resistant) strains of P. falciparum. […] Also included in Table 1 for direct comparison of activities against celastrol are data for the internal reference standards MB and artemisone recorded at the same time as for celastrol. […]

[2] = system: BEAS-2B non-tumorigenic human bronchial epithelium; test: MTT cytotoxicity assay BEAS-2B; format: cell-based; details: 72 h, read-out: IC50 BEAS-2B
Procedure: Proliferative and non-proliferative mammalian cell lines: human liver and lung cancer cell lines HepG2 and A549, and immortalized normal liver LO2 and lung BEAS-2B cells were purchased from ATCC (Manassas, VA, United States). Cells were cultured in RPMI-1640 medium supplemented with 10% fetal bovine serum and antibiotics penicillin (50 U/mL) and streptomycin (50 μg/ml; Invitrogen, United Kingdom). All cells were incubated at 37°C in a 5% humidified CO2 incubator.
All test compounds were dissolved in DMSO at a final concentration of 50 mM and stored at −20°C before use. Cytotoxicity was assessed with A549, HepG2, BEAS-2B and LO2 cells. The MTT assay with 3-(4,5-dimethylthiazole-2yl)-2,5-diphenyltetrazolium bromide (5 mg/ml) was performed as previously described ([Ng et al., 2022]). Briefly, 4 × 10^3 cells per well were seeded in 96-well plates before drug treatment. After overnight cell culture, the cells were exposed to different concentrations of selected compounds (0.19–100 μM) for 72 h. Cells without drug treatment were used as control. Next, 10 μl of the MTT solution was added to each well and incubated at 37°C for another 4 h. Solubilization buffer (100 μl) was then added (10 mM HCl in a solution of 10% of SDS) and incubated overnight. The absorbance A at 570 nm was measured on the next day. The percentage of cell viability was calculated using the following formula: Cell viability (%) = Atreated/Acontrol × 100. Dose response curves for all assays are given in the Supplementary Figures S3–S6.
Cytotoxicity was assessed for each of artemisinin, DHA and artemether, and the amino-artemisinins artemiside and artemisone, and celastrol against A549 human lung carcinoma, BEAS-2B non-tumorigenic human bronchial epithelium, HepG2 liver hepatocellular carcinoma and LO2 human normal hepatocytes using the MTT assay ([Ng et al., 2022]). Data are presented in Table 4, and dose response curves are given in the Supplementary Figures S3–S6.

[3] = system: HepG2 liver hepatocellular carcinoma; test: Cytotoxicity drug combination (isobole) assay HepG2; format: cell-based, human
Procedure: For the drug combination inhibitory assays, six drug preparations, of which four comprised combinations of either artemiside or artemisone with celastrol in a fixed ratio of 80:20, 60:40, 40:60, and 20:80 were prepared and screened against HepG2 liver hepatocellular carcinoma and LO2 human normal hepatocytes respectively. Two of these six preparations employed each of artemiside, artemisone or celastrol alone at a concentration approximately 5–7 times higher than the IC50 of the individual drug as presented in Table 4. […] Thus, six combinations for artemiside (µM) and celastrol (µM) prepared were 500:0, 400:4, 300:8, 200:12, 100:16, and 0:20, respectively.
As above for the malaria combination assays, a mean ΣFIC<1.0 represents a synergistic interaction, >1.3 represents an antagonistic interaction and ΣFIC = 1 represents an indifferent or additive interaction. Additivity, synergism and antagonism were also be established from the linear plots constructed from the FIC values of each of the drugs. A concave hyperbolic plot indicates synergism, a convex hyperbolic plot indicates an antagonistic interaction, and a straight line indicates an additive interaction. Isobole analysis of the combinations of each of artemiside and artemisone in combination with celastrol was performed against HepG2 and LO2 cells respectively. In Figure 5 is presented the isoboles for each drug combination.
Next, combinations of each of artemiside and artemisone with celastrol were examined, according to the method used to establish additivity/synergism described above. […] Against the normal hepatocyte LO2 cell line, whilst the interaction of artemisone with celastrol was synergistic, that of artemiside was additive. Synergism and additivity were also evident from the linear plots determined from the FIC values of each of the drugs (Table 5 and Figure 6). Thus, synergism is confirmed for combinations of the amino-artemisinins with celastrol against the HepG2 carcinoma cell line, and for artemisone-celastrol against human normal hepatocyte LO2.

[4] = artemisone:celastrol drug ratio 20:80, HepG2
[5] = artemisone:celastrol drug ratio 40:60, HepG2
[6] = artemisone:celastrol drug ratio 60:40, HepG2
[7] = artemisone:celastrol drug ratio 80:20, HepG2

Row | SMILES | IC50 ([1]; NF54, 96 h) | IC50 [2] | FIC ([3]; artemiside:celastrol drug ratio 20:80, HepG2) | FIC ([3]; artemiside:celastrol drug ratio 40:60, HepG2) | FIC ([3]; artemiside:celastrol drug ratio 60:40, HepG2) | FIC ([3]; artemiside:celastrol drug ratio 80:20, HepG2) | FIC [3, 4] | FIC [3, 5] | FIC [3, 6] | FIC [3, 7] | IC50 ([1]; NF54, asexual blood stage, SYBR Green I, 96 h, mean ± SEM, this study) | IC50 ([2]; MTT, ± SD)
1 | CC1=C(O)C(=O)C=C2C1=CC=C1[C@@]2(C)CC[C@@]2(C)[C@@H]3C[C@](C)(C(=O)O)CC[C@]3(C)CC[C@]12C [Celastrol, celastrol] | 820 ± 190 nM | 450 ± 100 nM | 0.35 | 0.34 | 0.14 | 0.08 | 0.88 | 0.4 | 0.23 | 0.14 | – | –
2 | C[C@H]1[C@H](N2CCS(=O)(=O)CC2)O[C@@H]2O[C@@]3(C)CC[C@H]4[C@H](C)CC[C@@H]1[C@@]24OO3 [Artemisone, artemisone] | – | – | – | – | – | – | 0.3 | 0.36 | 0.48 | 0.76 | 2.32 ± 0.76 nM | 73600 ± 1400 nM
